# Results reported in patent publication US20170275270A1, “BENZYL SUBSTITUTED INDAZOLES” (Bayer Pharma Aktiengesellschaft, priority 2014, published 2017).
# Target: T1, catalytic domain of human Bub1 (amino acids 704-1085) (Homo sapiens, UniProt O43683)
# T1 construct: catalytic domain of human Bub1 (amino acids 704-1085); His6 (N); made in house; host or cells: Hi5 insect cells
# Experiment: Bub1 kinase assay (TR-FRET)
# Type: biochemical
# Settings: Biological Assay 1: Bub1 kinase assay median IC50, 10 μM ATP
# Outline: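 Compounds from 2 mM DMSO stocks, serially diluted 1:3.4, incubated with enzyme at 22° C for 60 min. Stopped with EDTA, then 1 h with streptavidin-XL665, anti-phosphoserine antibody and Eu-labelled anti-mouse IgG. Phosphorylated biotin-peptide read by TR-FRET; IC50 by 4-parameter logistic fit.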
# T1 sequence (O43683 704-1085): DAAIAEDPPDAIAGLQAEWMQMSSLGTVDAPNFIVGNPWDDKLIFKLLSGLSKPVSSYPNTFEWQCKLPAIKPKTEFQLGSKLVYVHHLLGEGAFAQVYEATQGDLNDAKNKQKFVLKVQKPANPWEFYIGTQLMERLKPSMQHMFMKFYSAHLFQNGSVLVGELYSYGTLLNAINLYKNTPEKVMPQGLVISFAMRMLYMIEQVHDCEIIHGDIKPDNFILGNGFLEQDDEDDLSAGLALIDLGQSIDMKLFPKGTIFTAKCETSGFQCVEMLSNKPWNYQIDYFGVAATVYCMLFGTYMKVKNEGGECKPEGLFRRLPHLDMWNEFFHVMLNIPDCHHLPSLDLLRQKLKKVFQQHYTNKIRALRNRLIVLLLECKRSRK
row,SMILES,IC50
1,"COCCOc1cc(F)c(Cn2nc(-c3nc4c(c(Nc5cc(C)ncc5C)n3)CCC(C)(C)C4)c3ccccc32)c(F)c1 [Example 2-15-13, 2-{1-[2,6-difluoro-4-(2-methoxyethoxy)benzyl]-1H-indazol-3-yl}-N-(2,5-dimethylpyridin-4-yl)-7,7-dimethyl-5,6,7,8-tetrahydroquinazolin-4-amine]",59 nM
2,"COCCOc1cc(F)c(Cn2nc(-c3ncc(C4CCNCC4)c(Nc4ccnc(NC(C)=O)c4)n3)c3ccccc32)c(F)c1 [Example 2-17-8, N-(4-{[2-{1-[2,6-difluoro-4-(2-methoxyethoxy)benzyl]-1H-indazol-3-yl}-5-(piperidin-4-yl)pyrimidin-4-yl]amino}pyridin-2-yl)acetamide]",6.3 nM
3,"COCCOc1cc(F)c(Cn2nc(-c3ncc(C4CCNCC4)c(Nc4ccncc4Cl)n3)c3ccccc32)c(F)c1 [Example 2-17-9, N-(3-chloropyridin-4-yl)-2-{1-[2,6-difluoro-4-(2-methoxyethoxy)benzyl]-1H-indazol-3-yl}-5-(piperidin-4-yl)pyrimidin-4-amine]",7.5 nM
4,"COCCOc1cc(F)c(Cn2nc(-c3ncc(C4CCNCC4)c(Nc4ccnc(C)n4)n3)c3ccccc32)c(F)c1 [Example 2-17-10, 2-{1-[2,6-difluoro-4-(2-methoxyethoxy)benzyl]-1H-indazol-3-yl}-N-(2-methylpyrimidin-4-yl)-5-(piperidin-4-yl)pyrimidin-4-amine]",85 nM
5,"CCOc1cc(F)c(Cn2nc(-c3nc4c(c(Nc5ccncc5C)n3)CSC4)c3ccccc32)c(F)c1 [Example 2-19-2, 2-[1-(4-ethoxy-2,6-difluorobenzyl)-1H-indazol-3-yl]-N-(3-methylpyridin-4-yl)-5,7-dihydrothieno[3,4-d]pyrimidin-4-amine]",25 nM
6,"CCOc1cc(F)c(Cn2nc(-c3nc4c(c(Nc5ccnc(C)c5)n3)CS(=O)(=O)C4)c3ccccc32)c(F)c1 [Example 2-19-5, 2-[1-(4-ethoxy-2,6-difluorobenzyl)-1H-indazol-3-yl]-N-(2-methylpyridin-4-yl)-5,7-dihydrothieno[3,4-d]pyrimidin-4-amine 6,6-dioxide]",140 nM
7,"CCOc1cc(F)c(Cn2nc(-c3nc(CN4CCOCC4)cc(Nc4ccnc(OC)c4)n3)c3ccccc32)c(F)c1 [Example 2-19-10, 2-[1-(4-ethoxy-2,6-difluorobenzyl)-1H-indazol-3-yl]-N-(2-methoxypyridin-4-yl)-6-(morpholin-4-ylmethyl)pyrimidin-4-amine]",94 nM
8,"CCOc1cc(F)c(Cn2nc(-c3nc4c(c(Nc5ccnc(C(F)F)c5)n3)CS(=O)(=O)C4)c3ccccc32)c(F)c1 [Example 2-19-14, N-[2-(difluoromethyl)pyridin-4-yl]-2-[1-(4-ethoxy-2,6-difluorobenzyl)-1H-indazol-3-yl]-5,7-dihydrothieno[3,4-d]pyrimidin-4-amine 6,6-dioxide]",460 nM
9,"CCOc1cc(F)c(Cn2nc(-c3nc4c(c(Nc5ccnc(C)c5)n3)COC4)c3ccccc32)c(F)c1 [Example 2-19-16, 2-[1-(4-ethoxy-2,6-difluorobenzyl)-1H-indazol-3-yl]-N-(2-methylpyridin-4-yl)-5,7-dihydrofuro[3,4-d]pyrimidin-4-amine]",100 nM
10,"CCOc1cc(F)c(Cn2nc(-c3nc4c(c(Nc5ccncc5C)n3)COC4)c3ccccc32)c(F)c1 [Example 2-19-18, 2-[1-(4-ethoxy-2,6-difluorobenzyl)-1H-indazol-3-yl]-N-(3-methylpyridin-4-yl)-5,7-dihydrofuro[3,4-d]pyrimidin-4-amine]",84 nM
11,"CCOc1cc(F)c(Cn2nc(-c3nc4c(c(Nc5ccncc5)n3)CCCC4)c3ccccc32)c(F)c1 [Example 2-19-21, 2-[1-(4-ethoxy-2,6-difluorobenzyl)-1H-indazol-3-yl]-N-(pyridin-4-yl)-5,6,7,8-tetrahydroquinazolin-4-amine]",12 nM
12,"COCCOc1cc(F)c(Cn2nc(-c3ncc(C4CCN(CC(F)(F)F)CC4)c(Nc4ccnc(NC(C)=O)c4)n3)c3ccccc32)c(F)c1 [Example 2-20-7, N-{4-[(2-{1-[2,6-difluoro-4-(2-methoxyethoxy)benzyl]-1H-indazol-3-yl}-5-[1-(2,2,2-trifluoroethyl)piperidin-4-yl]pyrimidin-4-yl)amino]pyridin-2-yl}acetamide]",66 nM
13,"COCCOc1cc(F)c(Cn2nc(-c3ncc(C4CCN(CC(F)(F)F)CC4)c(Nc4ccncc4Cl)n3)c3ccccc32)c(F)c1 [Example 2-20-8, N-(3-chloropyridin-4-yl)-2-{1-[2,6-difluoro-4-(2-methoxyethoxy)benzyl]-1H-indazol-3-yl}-5-[1-(2,2,2-trifluoroethyl)piperidin-4-yl]pyrimidin-4-amine]",> 20000 nM
14,"COCCOc1cc(F)c(Cn2nc(-c3ncc(C4CCN(CCC(F)(F)F)CC4)c(Nc4ccncc4Cl)n3)c3ccccc32)c(F)c1 [Example 2-20-9, N-(3-chloropyridin-4-yl)-2-{1-[2,6-difluoro-4-(2-methoxyethoxy)benzyl]-1H-indazol-3-yl}-5-[1-(3,3,3-trifluoropropyl)piperidin-4-yl]pyrimidin-4-amine]",220 nM
15,"COCCOc1cc(F)c(Cn2nc(-c3ncc(C4CCN(CC(F)(F)F)CC4)c(Nc4ccnc(C)n4)n3)c3ccccc32)c(F)c1 [Example 2-20-10, 2-{1-[2,6-difluoro-4-(2-methoxyethoxy)benzyl]-1H-indazol-3-yl}-N-(2-methylpyrimidin-4-yl)-5-[1-(2,2,2-trifluoroethyl)piperidin-4-yl]pyrimidin-4-amine]",290 nM
16,"COCCOc1cc(F)c(Cn2nc(-c3ncc(C4CCN(CC(F)F)CC4)c(Nc4ccnc(C)n4)n3)c3ccccc32)c(F)c1 [Example 2-20-11, 5-[1-(2,2-difluoroethyl)piperidin-4-yl]-2-{1-[2,6-difluoro-4-(2-methoxyethoxy)benzyl]-1H-indazol-3-yl}-N-(2-methylpyrimidin-4-yl)pyrimidin-4-amine]",63 nM
17,"CCOc1cc(F)c(Cn2nc(-c3ncc(CCNCC(F)(F)F)c(Nc4ccnc(C)n4)n3)c3ccccc32)c(F)c1 [Example 2-20-13, 2-[1-(4-ethoxy-2,6-difluorobenzyl)-1H-indazol-3-yl]-N-(2-methylpyrimidin-4-yl)-5-{2-[(2,2,2-trifluoroethyl)amino]ethyl}pyrimidin-4-amine]",560 nM
18,"CCOc1cc(F)c(Cn2nc(-c3ncc(CCNCC(F)(F)F)c(Nc4ccnc(NC(C)=O)c4)n3)c3ccccc32)c(F)c1 [Example 2-20-15, N-{4-[(2-[1-(4-ethoxy-2,6-difluorobenzyl)-1H-indazol-3-yl]-5-{2-[(2,2,2-trifluoroethyl)amino]ethyl}pyrimidin-4-yl)amino]pyridin-2-yl}acetamide]",22 nM
19,"COCCOc1cc(F)c(Cn2nc(-c3nc4c(c(Nc5ccnc(C)n5)n3)CN(CC(F)(F)F)C4)c3ccccc32)c(F)c1 [Example 2-20-16, 2-{1-[2,6-difluoro-4-(2-methoxyethoxy)benzyl]-1H-indazol-3-yl}-N-(2-methylpyrimidin-4-yl)-6-(2,2,2-trifluoroethyl)-6,7-dihydro-5H-pyrrolo[3,4-d]pyrimidin-4-amine]",120 nM
20,"COCCOc1cc(F)c(Cn2nc(-c3nc4c(c(Nc5cc(C)ncc5C)n3)CN(CC(F)(F)F)C4)c3ccccc32)c(F)c1 [Example 2-20-17, 2-{1-[2,6-difluoro-4-(2-methoxyethoxy)benzyl]-1H-indazol-3-yl}-N-(2,5-dimethylpyridin-4-yl)-6-(2,2,2-trifluoroethyl)-6,7-dihydro-5H-pyrrolo[3,4-d]pyrimidin-4-amine]",34 nM
